Measured values taken from patent US6737383B1, “Herbicidal oxadiazolidines” (priority 1999, dated 2004).

Experiments:
blackgrass = test: Test B pre/postemergence blackgrass; type: in vivo, Alopecurus myosuroides; conditions: for Blackgrass plant response rating: scale of 0 to 10 where 0 is no effect and 10 is complete control
Summary of the method: (§1)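 Herbicidal effect was estimated by eye on a ten-point control scale after plants spent twelve to sixteen days in a greenhouse following soil or foliar treatment. Foliar sprays targeted plants at one to four leaves; all doses were formulated in a non-phytotoxic solvent with surfactant.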

soybean = test: Test B pre/postemergence soybean; type: in vivo, Glycine max; conditions: for Soybean plant response rating: scale of 0 to 10 where 0 is no effect and 10 is complete control
Summary of the method: as §1

surinam grass = test: Test B pre/postemergence surinam grass; type: in vivo, Brachiaria decumbens; conditions: for B. signalgrass plant response rating: scale of 0 to 10 where 0 is no effect and 10 is complete control
Summary of the method: as §1

giant foxtail = test: Test B pre/postemergence giant foxtail; type: in vivo, Setaria faberii; conditions: for Giant foxtail plant response rating: scale of 0 to 10 where 0 is no effect and 10 is complete control
Summary of the method: as §1

corn = test: Test B pre/postemergence corn; type: in vivo, Zea mays; conditions: for Corn plant response rating: scale of 0 to 10 where 0 is no effect and 10 is complete control
Summary of the method: as §1

rape = test: Test B pre/postemergence rape; type: in vivo, Brassica napus; conditions: for Rape plant response rating: scale of 0 to 10 where 0 is no effect and 10 is complete control
Summary of the method: as §1

morningglory = test: Test B pre/postemergence morningglory; type: in vivo, Ipomoea hederacea; conditions: for Morningglory plant response rating: scale of 0 to 10 where 0 is no effect and 10 is complete control
Summary of the method: as §1

velvetleaf = test: Test B pre/postemergence velvetleaf; type: in vivo, Abutilon theophrasti; conditions: for Velvetleaf plant response rating: scale of 0 to 10 where 0 is no effect and 10 is complete control
Summary of the method: as §1

bedstraw = test: Test B pre/postemergence bedstraw; type: in vivo, Galium aparine; conditions: for Bedstraw plant response rating: scale of 0 to 10 where 0 is no effect and 10 is complete control
Summary of the method: as §1

crabgrass = test: Test B pre/postemergence crabgrass; type: in vivo, Digitaria sanguinalis; conditions: for Crabgrass plant response rating: scale of 0 to 10 where 0 is no effect and 10 is complete control
Summary of the method: as §1

wheat = test: Test B pre/postemergence wheat; type: in vivo, Triticum aestivum; conditions: for Wheat plant response rating: scale of 0 to 10 where 0 is no effect and 10 is complete control
Summary of the method: as §1

sugar beet = test: Test B pre/postemergence sugar beet; type: in vivo, Beta vulgaris; conditions: for Sugarbeets plant response rating: scale of 0 to 10 where 0 is no effect and 10 is complete control
Summary of the method: as §1

wild oat = test: Test B pre/postemergence wild oat; type: in vivo, Avena fatua; conditions: for Wild oats plant response rating: scale of 0 to 10 where 0 is no effect and 10 is complete control
Summary of the method: as §1

purple nutsedge = test: Test B pre/postemergence purple nutsedge; type: in vivo, Cyperus rotundus; conditions: for Nutsedge plant response rating: scale of 0 to 10 where 0 is no effect and 10 is complete control
Summary of the method: as §1

cocklebur = test: Test B pre/postemergence cocklebur; type: in vivo, Xanthium strumarium; conditions: for Cocklebur plant response rating: scale of 0 to 10 where 0 is no effect and 10 is complete control
Summary of the method: as §1

pigweed = test: Test B pre/postemergence pigweed; type: in vivo, Amaranthus retroflexus; conditions: for Redroot pigweed plant response rating: scale of 0 to 10 where 0 is no effect and 10 is complete control
Summary of the method: as §1

[1] = Postemergence, Rate 125 g/ha, scale 0 to 10, 0 is no effect, 10 is complete control
[2] = Postemergence, Rate 250 g/ha, scale 0 to 10, 0 is no effect, 10 is complete control
[3] = Preemergence, Rate 62 g/ha, scale 0 to 10 (0 no effect, 10 complete control)
[4] = Rate 500 g/ha, Postemergence, scale 0 to 10, 0 no effect, 10 complete control

CC(C)N(C(=O)n1oc(=O)n(C2(C)CC2)c1=O)c1ccc(F)cc1F [Compound 363]
1: Plant response rating, B. signalgrass (surinam grass; [2]) | Rape plant response rating (0 to 10 scale) (rape; Preemergence, Rate 125 g/ha) | Plant response rating, Morningglory (morningglory; [1]) | Plant response rating, Morningglory (morningglory; [2]) | Morningglory plant response rating (morningglory; Rate 62 g/ha, Postemergence) | Plant response rating, Velvetleaf (velvetleaf; [3]) | Crabgrass plant response rating (crabgrass; Rate 62 g/ha, Postemergence) | Plant response rating, Sugarbeets (sugar beet; [1]) | Plant response rating, Wild oats (wild oat; [2])
5: Blackgrass plant response rating (blackgrass; Rate 62 g/ha, Postemergence) | Plant response rating, Soybean (soybean; [1]) | B. signalgrass plant response rating (surinam grass; Preemergence, Rate 250 g/ha) | Plant response rating, B. signalgrass (surinam grass; [4]) | Rape plant response rating (rape; Preemergence, Rate 500 g/ha) | Morningglory plant response rating (morningglory; Preemergence, Rate 250 g/ha) | Velvetleaf plant response rating (0 to 10 scale) (velvetleaf; Preemergence, Rate 125 g/ha) | Plant response rating, Crabgrass (crabgrass; [2]) | Plant response rating, Wheat (wheat; [2]) | Wheat plant response rating (0 to 10 scale) (wheat; Preemergence, Rate 125 g/ha) | Plant response rating, Wild oats (wild oat; [3]) | Plant response rating, Redroot pigweed (pigweed; [4])
10: Blackgrass plant response rating (0 to 10 scale) (blackgrass; Preemergence, Rate 125 g/ha) | Blackgrass plant response rating (blackgrass; Preemergence, Rate 250 g/ha) | Blackgrass plant response rating (blackgrass; Preemergence, Rate 500 g/ha) | Giant foxtail plant response rating (0 to 10 scale) (giant foxtail; Preemergence, Rate 125 g/ha) | Giant foxtail plant response rating (giant foxtail; Preemergence, Rate 250 g/ha) | Giant foxtail plant response rating (giant foxtail; Preemergence, Rate 500 g/ha) | Bedstraw plant response rating (bedstraw; Preemergence, Rate 250 g/ha) | Bedstraw plant response rating (bedstraw; Preemergence, Rate 500 g/ha) | Wild oats plant response rating (wild oat; Preemergence, Rate 250 g/ha) | Wild oats plant response rating (wild oat; Preemergence, Rate 500 g/ha) | Redroot pigweed plant response rating (pigweed; Preemergence, Rate 500 g/ha)
0: Plant response rating, Soybean (soybean; [3]) | Soybean plant response rating (0 to 10 scale) (soybean; Preemergence, Rate 125 g/ha) | Soybean plant response rating (soybean; Preemergence, Rate 250 g/ha) | Soybean plant response rating (soybean; Preemergence, Rate 500 g/ha) | Plant response rating, B. signalgrass (surinam grass; [1]) | B. signalgrass plant response rating (surinam grass; Rate 62 g/ha, Postemergence) | Plant response rating, Corn (corn; [1]) | Plant response rating, Corn (corn; [3]) | Corn plant response rating (0 to 10 scale) (corn; Preemergence, Rate 125 g/ha) | Corn plant response rating (corn; Rate 62 g/ha, Postemergence) | Plant response rating, Rape (rape; [1]) | Plant response rating, Rape (rape; [2]) | Plant response rating, Rape (rape; [3]) | Rape plant response rating (rape; Rate 62 g/ha, Postemergence) | Plant response rating, Morningglory (morningglory; [3]) | Morningglory plant response rating (0 to 10 scale) (morningglory; Preemergence, Rate 125 g/ha) | Plant response rating, Velvetleaf (velvetleaf; [1]) | Velvetleaf plant response rating (velvetleaf; Rate 62 g/ha, Postemergence) | Wheat plant response rating (wheat; Rate 62 g/ha, Postemergence) | Plant response rating, Sugarbeets (sugar beet; [3]) | Sugarbeets plant response rating (sugar beet; Rate 62 g/ha, Postemergence) | Plant response rating, Wild oats (wild oat; [1]) | Wild oats plant response rating (wild oat; Rate 62 g/ha, Postemergence) | Plant response rating, Nutsedge (purple nutsedge; [1]) | Plant response rating, Nutsedge (purple nutsedge; [2]) | Plant response rating, Nutsedge (purple nutsedge; [3]) | Nutsedge plant response rating (0 to 10 scale) (purple nutsedge; Preemergence, Rate 125 g/ha) | Nutsedge plant response rating (purple nutsedge; Preemergence, Rate 250 g/ha) | Nutsedge plant response rating (purple nutsedge; Rate 62 g/ha, Postemergence) | Plant response rating, Nutsedge (purple nutsedge; [4]) | Plant response rating, Cocklebur (cocklebur; [1]) | Plant response rating, Cocklebur (cocklebur; [3]) | Cocklebur plant response rating (0 to 10 scale) (cocklebur; Preemergence, Rate 125 g/ha) | Cocklebur plant response rating (cocklebur; Preemergence, Rate 250 g/ha) | Cocklebur plant response rating (cocklebur; Preemergence, Rate 500 g/ha) | Cocklebur plant response rating (cocklebur; Rate 62 g/ha, Postemergence) | Plant response rating, Redroot pigweed (pigweed; [1]) | Redroot pigweed plant response rating (pigweed; Rate 62 g/ha, Postemergence)
7: Plant response rating, Blackgrass (blackgrass; [1]) | Plant response rating, Blackgrass (blackgrass; [2]) | Plant response rating, Soybean (soybean; [4]) | Corn plant response rating (corn; Preemergence, Rate 500 g/ha) | Velvetleaf plant response rating (velvetleaf; Preemergence, Rate 500 g/ha) | Plant response rating, Bedstraw (bedstraw; [2]) | Crabgrass plant response rating (0 to 10 scale) (crabgrass; Preemergence, Rate 125 g/ha) | Crabgrass plant response rating (crabgrass; Preemergence, Rate 250 g/ha) | Wheat plant response rating (wheat; Preemergence, Rate 500 g/ha) | Sugarbeets plant response rating (sugar beet; Preemergence, Rate 250 g/ha) | Plant response rating, Wild oats (wild oat; [4]) | Redroot pigweed plant response rating (pigweed; Preemergence, Rate 250 g/ha)
6: Plant response rating, Soybean (soybean; [2]) | B. signalgrass plant response rating (surinam grass; Preemergence, Rate 500 g/ha) | Plant response rating, Corn (corn; [4]) | Morningglory plant response rating (morningglory; Preemergence, Rate 500 g/ha) | Velvetleaf plant response rating (velvetleaf; Preemergence, Rate 250 g/ha) | Plant response rating, Velvetleaf (velvetleaf; [4]) | Wheat plant response rating (wheat; Preemergence, Rate 250 g/ha) | Plant response rating, Wheat (wheat; [4])
3: Plant response rating, B. signalgrass (surinam grass; [3]) | B. signalgrass plant response rating (0 to 10 scale, 0 is no effect, 10 is complete control) (surinam grass; Preemergence, Rate 125 g/ha) | Corn plant response rating (corn; Preemergence, Rate 250 g/ha) | Rape plant response rating (rape; Preemergence, Rate 250 g/ha) | Plant response rating, Morningglory (morningglory; [4]) | Plant response rating, Velvetleaf (velvetleaf; [2]) | Plant response rating, Crabgrass (crabgrass; [3]) | Plant response rating, Wheat (wheat; [3]) | Plant response rating, Sugarbeets (sugar beet; [2]) | Plant response rating, Sugarbeets (sugar beet; [4]) | Redroot pigweed plant response rating (0 to 10 scale) (pigweed; Preemergence, Rate 125 g/ha)
2: Plant response rating, Corn (corn; [2]) | Plant response rating, Rape (rape; [4]) | Plant response rating, Crabgrass (crabgrass; [1]) | Nutsedge plant response rating (purple nutsedge; Preemergence, Rate 500 g/ha) | Plant response rating, Cocklebur (cocklebur; [2]) | Plant response rating, Cocklebur (cocklebur; [4]) | Plant response rating, Redroot pigweed (pigweed; [2]) | Plant response rating, Redroot pigweed (pigweed; [3])
4: Soybean plant response rating (soybean; Rate 62 g/ha, Postemergence) | Plant response rating, Giant foxtail (giant foxtail; [1]) | Giant foxtail plant response rating (giant foxtail; Rate 62 g/ha, Postemergence) | Plant response rating, Bedstraw (bedstraw; [1]) | Bedstraw plant response rating (bedstraw; Rate 62 g/ha, Postemergence) | Plant response rating, Wheat (wheat; [1]) | Sugarbeets plant response rating (0 to 10 scale) (sugar beet; Preemergence, Rate 125 g/ha)
8: Plant response rating, Blackgrass (blackgrass; [3]) | Plant response rating, Blackgrass (blackgrass; [4]) | Sugarbeets plant response rating (sugar beet; Preemergence, Rate 500 g/ha)
9: Plant response rating, Giant foxtail (giant foxtail; [2]) | Plant response rating, Giant foxtail (giant foxtail; [4]) | Plant response rating, Bedstraw (bedstraw; [3]) | Bedstraw plant response rating (0 to 10 scale) (bedstraw; Preemergence, Rate 125 g/ha) | Plant response rating, Bedstraw (bedstraw; [4]) | Crabgrass plant response rating (crabgrass; Preemergence, Rate 500 g/ha) | Plant response rating, Crabgrass (crabgrass; [4]) | Wild oats plant response rating (0 to 10 scale) (wild oat; Preemergence, Rate 125 g/ha)
